Measurements taken from patent US7491819B1 (priority 2004, dated 2009).
pEC50, pIC50: −log10 of the molar value. Read-outs that look alike come from different tables or passages of the source.

How the values were obtained:
NL-Rluc virus = assay: Inhibition of HIV replication (recombinant NL-Rluc virus, luciferase); assay type: cell-based
HIV-integrase = biological target: T1, HIV-integrase (Human immunodeficiency virus type 1 group M subtype B, UniProt P12497); assay: HIV-Integrase Inhibition Activity (SPA bead strand-transfer assay); assay type: biochemical
T1 construct: Recombinant integrase (0.26 ng) was incubated with the beads
Summary of the method: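 Strand-transfer read-out: CPM from P33-labelled target DNA (0.1 fmol) joined to bead-bound biotin substrate DNA (5 pmole), with EDTA stop at 10 mM final. Integrase (0.26 ng) prebound to streptavidin SPA beads 90 min, 37° C, and washed before adding inhibitor.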

[1] = Human immunodeficiency virus 1, read-out: Inhibition of HIV replication
[2] = Table 2a, read-out: HIV-Integrase Inhibition Activity

| Structure (SMILES) | pEC50 (NL-Rluc virus; [1]) | pIC50 (HIV-integrase; [2]) | pEC50 (NL-Rluc virus; Human immunodeficiency virus 1, Table 2, serum condition not stated (10% FBS, 15 mg/ml human serum albumin/10% FBS or 40% human serum/5% FBS), at least 2 experiments, read-out: Activity (inhibition of HIV replication, EC50 class)) | pIC50 (HIV-integrase) |
| --- | --- | --- | --- | --- |
| CC1(C)OCCn2c1nc(C(=O)NCc1ccc(F)cc1-n1ncnc1CO)c(O)c2=O [Example 308, Pyrimido[2,1-c][1,4]oxazine-2-carboxamide, N-[[4-fluoro-2-[5-(hydroxymethyl)-1H-1,2,4-triazol-1-yl]phenyl]methyl]-4,6,7,9-tetrahydro-3-hydroxy-9,9-dimethyl-4-oxo-] | 7.00 to 8.52 | 7.00 to 8.70 | – | – |
| CC1(C)OCCn2c1nc(C(=O)NCc1ccc(F)cc1OC(=O)N1CCOCC1)c(O)c2=O [Example 99, 4-Morpholinecarboxylic acid, 5-fluoro-2-[[[(4,6,7,9-tetrahydro-3-hydroxy-9,9-dimethyl-4-oxopyrimido[2,1-c][1,4]oxazin-2-yl)carbonyl]amino]methyl]phenyl ester] | – | – | 7.00 to 8.52 | 7.00 to 8.70 |
| CCC1(C)OCCn2c1nc(C(=O)NCc1ccc(F)cc1S(C)(=O)=O)c(O)c2=O (centres unmarked) [Example 314, Pyrimido[2,1-c][1,4]oxazine-2-carboxamide, 9-ethyl-N-[[4-fluoro-2-(methylsulfonyl)phenyl]methyl]-4,6,7,9-tetrahydro-3-hydroxy-9-methyl-4-oxo-] | 7.00 to 8.52 | 7.00 to 8.70 | – | – |
| CCSc1cc(F)ccc1CNC(=O)c1nc2n(c(=O)c1O)CCOC2(C)C [Example 311, Pyrimido[2,1-c][1,4]oxazine-2-carboxamide, N-[[2-(ethylthio)-4-fluorophenyl]methyl]-4,6,7,9-tetrahydro-3-hydroxy-9,9-dimethyl-4-oxo-] | 7.00 to 8.52 | 7.00 to 8.70 | – | – |
| Cc1nnn(-c2cc(F)ccc2CNC(=O)c2nc3n(c(=O)c2O)CCOC3(C)C)c1C [Example 298, Pyrimido[2,1-c][1,4]oxazine-2-carboxamide, N-[[2-(4,5-dimethyl-1H-1,2,3-triazol-1-yl)-4-fluorophenyl]methyl]-4,6,7,9-tetrahydro-3-hydroxy-9,9-dimethyl-4-oxo-] | 7.00 to 8.52 | 7.00 to 8.70 | – | – |
| CC1(C)OCCn2c1nc(C(=O)NCc1ccc(F)cc1P(=O)(O)OCCO)c(O)c2=O [Example 292, Phosphonic acid, [5-fluoro-2-[[[(4,6,7,9-tetrahydro-3-hydroxy-9,9-dimethyl-4-oxopyrimido[2,1-c][1,4]oxazin-2-yl)carbonyl]amino]methyl]phenyl]-, mono(2-hydroxyethyl) ester] | < 6.00 | 7.00 to 8.70 | – | – |
| Cc1ncn(-c2cc(F)ccc2CNC(=O)c2nc3n(c(=O)c2O)CCCOC3(C)C)n1 [Example 317, 6H-Pyrimido[2,1-c][1,4]oxazepine-2-carboxamide, N-[[4-fluoro-2-(3-methyl-1H-1,2,4-triazol-1-yl)phenyl]methyl]-4,7,8,10-tetrahydro-3-hydroxy-10,10-dimethyl-4-oxo-] | 7.00 to 8.52 | 7.00 to 8.70 | – | – |
| CC1(C)OCCn2c1nc(C(=O)NCc1ccc(F)cc1P1(=O)OCCO1)c(O)c2=O [Example 291, Pyrimido[2,1-c][1,4]oxazine-2-carboxamide, N-[[4-fluoro-2-(2-oxido-1,3,2-dioxaphospholan-2-yl)phenyl]methyl]-4,6,7,9-tetrahydro-3-hydroxy-9,9-dimethyl-4-oxo-] | < 6.00 | 7.00 to 8.70 | – | – |
| CCS(=O)(=O)Nc1cc(F)ccc1CNC(=O)c1nc2n(c(=O)c1O)CCOC2(C)C [Example 305, Pyrimido[2,1-c][1,4]oxazine-2-carboxamide, N-[[2-[(ethylsulfonyl)amino]-4-fluorophenyl]methyl]-4,6,7,9-tetrahydro-3-hydroxy-9,9-dimethyl-4-oxo-] | 7.00 to 8.52 | 7.00 to 8.70 | – | – |
| CC1(C)OCCCn2c1nc(C(=O)NCc1ccc(F)cc1-n1ccnn1)c(O)c2=O [Example 300, 6H-Pyrimido[2,1-c][1,4]oxazepine-2-carboxamide, N-[[4-fluoro-2-(1H-1,2,3-triazol-1-yl)phenyl]methyl]-4,7,8,10-tetrahydro-3-hydroxy-10,10-dimethyl-4-oxo-] | 7.00 to 8.52 | 7.00 to 8.70 | – | – |
| CC(=O)OCCSc1cc(F)ccc1CNC(=O)c1nc2n(c(=O)c1O)CCOC2(C)C [Example 309, Pyrimido[2,1-c][1,4]oxazine-2-carboxamide, N-[[2-[[2-(acetyloxy)ethyl]thio]-4-fluorophenyl]methyl]-4,6,7,9-tetrahydro-3-hydroxy-9,9-dimethyl-4-oxo-] | 7.00 to 8.52 | 7.00 to 8.70 | – | – |
| CC1(C)OCCn2c1nc(C(=O)NCc1ccc(F)cc1-n1ccnn1)c(O)c2=O [Example 295, Pyrimido[2,1-c][1,4]oxazine-2-carboxamide, N-[[4-fluoro-2-(1H-1,2,3-triazol-1-yl)phenyl]methyl]-4,6,7,9-tetrahydro-3-hydroxy-9,9-dimethyl-4-oxo-] | 7.00 to 8.52 | 7.00 to 8.70 | – | – |
| CC(C)(C)c1cn(-c2cc(F)ccc2CNC(=O)c2nc3n(c(=O)c2O)CCCOC3(C)C)nn1 [Example 301, 6H-Pyrimido[2,1-c][1,4]oxazepine-2-carboxamide, N-[[2-[4-(1,1-dimethylethyl)-1H-1,2,3-triazol-1-yl]-4-fluorophenyl]methyl]-4,7,8,10-tetrahydro-3-hydroxy-10,10-dimethyl-4-oxo-] | 7.00 to 8.52 | 7.00 to 8.70 | – | – |
| CC1(C)OCCCn2c1nc(C(=O)NCc1ccc(F)cc1N1CCOC1=O)c(O)c2=O [Example 304, 6H-Pyrimido[2,1-c][1,4]oxazepine-2-carboxamide, N-[[4-fluoro-2-(2-oxo-3-oxazolidinyl)phenyl]methyl]-4,7,8,10-tetrahydro-3-hydroxy-10,10-dimethyl-4-oxo-] | 7.00 to 8.52 | 7.00 to 8.70 | – | – |
| Cc1nc(C)n(-c2cc(F)ccc2CNC(=O)c2nc3n(c(=O)c2O)CCOC3(C)C)n1 [Example 307, Pyrimido[2,1-c][1,4]oxazine-2-carboxamide, N-[[2-(3,5-dimethyl-1H-1,2,4-triazol-1-yl)-4-fluorophenyl]methyl]-4,6,7,9-tetrahydro-3-hydroxy-9,9-dimethyl-4-oxo-] | 7.00 to 8.52 | 7.00 to 8.70 | – | – |
| CC1(C)OCCn2c1nc(C(=O)NCc1ccc(F)cc1P(=O)(OCCO)OCCO)c(O)c2=O [Example 293, Phosphonic acid, [5-fluoro-2-[[[(4,6,7,9-tetrahydro-3-hydroxy-9,9-dimethyl-4-oxopyrimido[2,1-c][1,4]oxazin-2-yl)carbonyl]amino]methyl]phenyl]-, bis(2-hydroxyethyl) ester] | 6.00 to 7.00 | 7.00 to 8.70 | – | – |
| Cc1nnn(-c2cc(F)ccc2CNC(=O)c2nc3n(c(=O)c2O)CCOCC3(C)C)c1C [Example 302, 4H-Pyrimido[1,2-d][1,4]oxazepine-2-carboxamide, N-[[2-(4,5-dimethyl-1H-1,2,3-triazol-1-yl)-4-fluorophenyl]methyl]-6,7,9,10-tetrahydro-3-hydroxy-10,10-dimethyl-4-oxo-] | 7.00 to 8.52 | 7.00 to 8.70 | – | – |
| CC1(C)OCCn2c1nc(C(=O)NCc1ccc(F)cc1S(=O)(=O)CCO)c(O)c2=O [Example 312, Pyrimido[2,1-c][1,4]oxazine-2-carboxamide, N-[[4-fluoro-2-[(2-hydroxyethyl)sulfonyl]phenyl]methyl]-4,6,7,9-tetrahydro-3-hydroxy-9,9-dimethyl-4-oxo-] | 7.00 to 8.52 | 7.00 to 8.70 | – | – |
| COP(=O)(OC)c1cc(F)ccc1CNC(=O)c1nc2n(c(=O)c1O)CCCOC2(C)C [Example 318, Phosphonic acid, [5-fluoro-2-[[[(4,7,8,10-tetrahydro-3-hydroxy-10,10-dimethyl-4-oxo-6H-pyrimido[2,1-c][1,4]oxazepin-2-yl)carbonyl]amino]methyl]phenyl]-, dimethyl ester] | 7.00 to 8.52 | 7.00 to 8.70 | – | – |
